Source: paper PMC11143257, “Atomistic mechanism of coupling between cytosolic sensor domain and selectivity filter in TREK K2P channels” (Nature Communications, 2024)
Structures can show the parent of a compound that is named as a salt.

Biological target: T1, TREK-2 S331D/S364D (Homo sapiens, UniProt P57789, S326D/S359D)
T1 sequence (P57789 1-538 S326D/S359D): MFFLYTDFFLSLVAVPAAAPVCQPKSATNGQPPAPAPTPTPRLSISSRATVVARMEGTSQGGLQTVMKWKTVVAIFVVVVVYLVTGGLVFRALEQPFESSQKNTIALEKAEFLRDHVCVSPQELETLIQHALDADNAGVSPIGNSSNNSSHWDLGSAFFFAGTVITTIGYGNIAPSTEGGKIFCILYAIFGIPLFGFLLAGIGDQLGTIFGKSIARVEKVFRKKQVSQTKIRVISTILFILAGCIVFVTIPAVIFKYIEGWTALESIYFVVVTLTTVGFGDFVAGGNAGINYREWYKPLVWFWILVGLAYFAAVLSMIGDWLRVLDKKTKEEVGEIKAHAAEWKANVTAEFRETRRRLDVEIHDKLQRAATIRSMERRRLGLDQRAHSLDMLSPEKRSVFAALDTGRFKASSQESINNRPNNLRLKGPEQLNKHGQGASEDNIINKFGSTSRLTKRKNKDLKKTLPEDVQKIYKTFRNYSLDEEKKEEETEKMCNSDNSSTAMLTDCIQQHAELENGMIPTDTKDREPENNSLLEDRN
Experiment: NFx inhibition, inside-out patch-clamp
Type: cell-based
Details: TREK-2 S331D/S364D (phosphorylation mimic); n = 7
Protocol: We measured TREK-1 channel currents in response to 800 ms voltage ramps (− 80 mV to + 80 mV) in excised membrane patches under asymmetrical K^+ conditions (Fig. 4b).
Xenopus laevis oocytes were surgically removed from anesthetized adult females, treated with type II collagenase (Sigma-Aldrich/Merck, Germany) and manually defolliculated. A solution containing the K^+ channel-specific cRNA at a desired concentration was injected into Dumont stage V - VI oocytes and subsequently incubated at 17 °C in a solution containing (mM): 54 NaCl, […], 2.4 NaHCO3, 0.82 MgSO4 x 7 H2O, 0.41 CaCl2, 0.33 Ca(NO3)2 x 4 H2O and 7.5 TRIS (pH 7.4 adjusted with NaOH/HCl) for 1 - 7 days before use. Patch-clamp recordings in an inside-out configuration under voltage-clamp conditions were performed at room temperature (22 - 24 °C). Patch pipettes were made from thick-walled borosilicate glass GB 200TF-8P (Science Products, Germany), had resistances of 0.2 - 0.5 MΩ (tip diameter of 10 - 25 µm) and filled with a pipette solution (in mM): 120 KCl, 10 HEPES and 3.6 CaCl2 (pH 7.4 adjusted with KOH/HCl). Intracellular bath solutions and compounds were applied to the cytoplasmic side of excised patches for the various K^+ channels via a gravity flow multi-barrel pipette system. The intracellular solution had the following composition (in mM): 120 KCl, 10 HEPES, 2 EGTA, and 1 Pyrophosphate (pH adjusted with KOH/HCl). Currents were recorded with an EPC10 amplifier (HEKA electronics, Germany) and sampled at 10 kHz or higher and filtered with 3 kHz (-3 dB) or higher as appropriate for the sampling rate.
Decyl-MethaneThioSulfonate (Decyl-MTS), (2-(trimethylammonium)ethyl)MethaneThioSulfonate bromide (MTS-ET^+) and Sodium (2-sulfonatoethyl)MethaneThioSulfonate (MTS-ES^-) were purchased from Toronto Research Chemicals. MTS-ET^+ was directly dissolved to the desired concentration of 1 mM in the intracellular recording solution before each experiment. MTS-ET^+ was used immediately after dilution for maximally 5 min. Decyl-MTS and […] were prepared as 10 - 100 mM stocks in DMSO and diluted to the desired concentration before the measurements.

IC50: 1000 ± 1000 nM
Structure (SMILES): NCCC(Oc1ccc(C(F)(F)F)cc1)c1ccccc1 (stereo not shown) [NFx, Norfluoxetine hydrochloride]
